Experimental data from the supplement of paper PMC13207355.

Assays:
Settings in all cases: exposure time: 72 h
[1] = system: E13 (patient-derived glioblastoma stem cells of classical subtype); test: phenotypic distance (Euclidean, principal components) from DMSO controls (arbitrary units); higher = stronger morphological change
[2] = system: FT3469 (normal neural stem cell line); test: as above
[3] = system: E31 (patient-derived glioblastoma stem cells of proneural subtype); test: as above
[4] = system: E34 (patient-derived glioblastoma stem cells of proneural subtype); test: as above
[5] = system: E28 (patient-derived glioblastoma stem cells of classical subtype); test: as above
[6] = system: E57 (patient-derived glioblastoma stem cells of mesenchymal subtype); test: as above
[7] = system: E21 (patient-derived glioblastoma stem cells of mesenchymal subtype); test: as above
[8] = system: E13; test: surviving fraction (nuclei count normalised to DMSO); higher = more cells surviving (less toxic)
[9] = system: FT3469; test: as above
[10] = system: E31; test: as above
[11] = system: E34; test: as above
[12] = system: E28; test: as above
[13] = system: E57; test: as above
[14] = system: E21; test: as above
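For phenotypic distance (Euclidean, principal components) from DMSO controls in this document: cell Painting imaging in 384-well plates, CellProfiler features reduced to at least 20 principal components, Euclidean distance versus same-plate DMSO vehicle wells (0.1% v/v), median over six images per well.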
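For surviving fraction (nuclei count normalised to DMSO) in this document: nuclei counted by high-content imaging of Hoechst-stained cells in laminin-coated 384-well plates, relative to 0.1% DMSO vehicle wells, with staurosporine as cell-death control.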

Nc1ccc(-c2ccc3ncc4ccc(=O)n(-c5cccc(C(F)(F)F)c5)c4c3c2)cn1 [Torin2]
Settings	phenotypic distance	surviving fraction
[1], 4.1 nM	1.33	–
[1], 12.3 nM	2.1	–
[1], 37 nM	2.69	–
[1], 111.1 nM	3.25	–
[1], 333.3 nM	4.2	–
[1], 1000 nM	4.27	–
[1], 3000 nM	4.72	–
[2], 4.1 nM	1.78	–
[2], 12.3 nM	2	–
[2], 37 nM	2.85	–
[2], 111.1 nM	2.71	–
[2], 333.3 nM	3.04	–
[2], 1000 nM	2.81	–
[2], 3000 nM	3.65	–
[3], 4.1 nM	1.91	–
[3], 12.3 nM	2.08	–
[3], 37 nM	3.12	–
[3], 111.1 nM	4.26	–
[3], 333.3 nM	5.33	–
[3], 1000 nM	5.33	–
[3], 3000 nM	6.15	–
[4], 4.1 nM	1.56	–
[4], 12.3 nM	2.42	–
[4], 37 nM	2.76	–
[4], 111.1 nM	3.31	–
[4], 333.3 nM	3.09	–
[4], 1000 nM	2.85	–
[4], 3000 nM	3.68	–
[5], 4.1 nM	1.23	–
[5], 12.3 nM	2.35	–
[5], 37 nM	2.78	–
[5], 111.1 nM	3.06	–
[5], 333.3 nM	2.87	–
[5], 1000 nM	3.67	–
[5], 3000 nM	3.52	–
[6], 4.1 nM	1.19	–
[6], 12.3 nM	1.65	–
[6], 37 nM	2.17	–
[6], 111.1 nM	3.47	–
[6], 333.3 nM	4.27	–
[6], 1000 nM	5.35	–
[6], 3000 nM	8.06	–
[7], 4.1 nM	1.71	–
[7], 12.3 nM	2.07	–
[7], 37 nM	2.44	–
[7], 111.1 nM	3.36	–
[7], 333.3 nM	6.2	–
[7], 1000 nM	4.67	–
[7], 3000 nM	5.09	–
[8], 4.1 nM	–	0.816
[8], 12.3 nM	–	0.728
[8], 37 nM	–	0.628
[8], 111.1 nM	–	0.537
[8], 333.3 nM	–	0.467
[8], 1000 nM	–	0.434
[8], 3000 nM	–	0.387
[9], 4.1 nM	–	0.978
[9], 12.3 nM	–	0.925
[9], 37 nM	–	0.73
[9], 111.1 nM	–	0.685
[9], 333.3 nM	–	0.769
[9], 1000 nM	–	0.685
[9], 3000 nM	–	0.527
[10], 4.1 nM	–	0.743
[10], 12.3 nM	–	0.669
[10], 37 nM	–	0.612
[10], 111.1 nM	–	0.386
[10], 333.3 nM	–	0.26
[10], 1000 nM	–	0.234
[10], 3000 nM	–	0.102
[11], 4.1 nM	–	0.986
[11], 12.3 nM	–	0.84
[11], 37 nM	–	0.809
[11], 111.1 nM	–	0.796
[11], 333.3 nM	–	0.623
[11], 1000 nM	–	0.471
[11], 3000 nM	–	0.424
[12], 4.1 nM	–	0.829
[12], 12.3 nM	–	0.687
[12], 37 nM	–	0.705
[12], 111.1 nM	–	0.526
[12], 333.3 nM	–	0.534
[12], 1000 nM	–	0.417
[12], 3000 nM	–	0.324
[13], 4.1 nM	–	0.892
[13], 12.3 nM	–	0.74
[13], 37 nM	–	0.659
[13], 111.1 nM	–	0.548
[13], 333.3 nM	–	0.424
[13], 1000 nM	–	0.302
[13], 3000 nM	–	0.148
[14], 4.1 nM	–	0.939
[14], 12.3 nM	–	0.836
[14], 37 nM	–	0.924
[14], 111.1 nM	–	0.595
[14], 333.3 nM	–	0.326
[14], 1000 nM	–	0.31
[14], 3000 nM	–	0.252

Cc1cc(CN2CCN(c3c(Br)cnc4nc(-c5ccc(N6CCN(C)CC6)cc5)[nH]c34)CC2)no1
Settings	phenotypic distance	surviving fraction
[1], 4.1 nM	0.33	–
[1], 12.3 nM	0.336	–
[1], 37 nM	0.51	–
[1], 111.1 nM	0.456	–
[1], 333.3 nM	1.86	–
[1], 1000 nM	4.59	–
[1], 3000 nM	13.4	–
[2], 4.1 nM	1.38	–
[2], 12.3 nM	0.929	–
[2], 37 nM	1.76	–
[2], 111.1 nM	1.44	–
[2], 333.3 nM	1.88	–
[2], 1000 nM	2.37	–
[2], 3000 nM	9.55	–
[3], 4.1 nM	0.99	–
[3], 12.3 nM	1.9	–
[3], 37 nM	1.97	–
[3], 111.1 nM	0.784	–
[3], 333.3 nM	1.62	–
[3], 1000 nM	3.36	–
[3], 3000 nM	10.2	–
[4], 4.1 nM	1.02	–
[4], 12.3 nM	1.13	–
[4], 37 nM	0.858	–
[4], 111.1 nM	0.728	–
[4], 333.3 nM	2.67	–
[4], 1000 nM	2.84	–
[4], 3000 nM	8.59	–
[5], 4.1 nM	1.13	–
[5], 12.3 nM	1.52	–
[5], 37 nM	1.01	–
[5], 111.1 nM	1.29	–
[5], 333.3 nM	1.23	–
[5], 1000 nM	2.97	–
[5], 3000 nM	5.6	–
[6], 4.1 nM	0.499	–
[6], 12.3 nM	0.684	–
[6], 37 nM	0.82	–
[6], 111.1 nM	1.16	–
[6], 333.3 nM	5.64	–
[6], 1000 nM	8.26	–
[6], 3000 nM	9.56	–
[7], 4.1 nM	1.03	–
[7], 12.3 nM	0.842	–
[7], 37 nM	0.688	–
[7], 111.1 nM	0.989	–
[7], 333.3 nM	2.77	–
[7], 1000 nM	5.77	–
[7], 3000 nM	7.03	–
[8], 4.1 nM	–	0.995
[8], 12.3 nM	–	0.966
[8], 37 nM	–	0.963
[8], 111.1 nM	–	0.91
[8], 333.3 nM	–	0.676
[8], 1000 nM	–	0.528
[8], 3000 nM	–	0.0986
[9], 4.1 nM	–	0.662
[9], 12.3 nM	–	0.758
[9], 37 nM	–	0.843
[9], 111.1 nM	–	0.737
[9], 333.3 nM	–	0.705
[9], 1000 nM	–	0.676
[9], 3000 nM	–	0.37
[10], 4.1 nM	–	1.02
[10], 12.3 nM	–	0.782
[10], 37 nM	–	0.994
[10], 111.1 nM	–	0.867
[10], 333.3 nM	–	0.511
[10], 1000 nM	–	0.334
[10], 3000 nM	–	0.00629
[11], 4.1 nM	–	0.839
[11], 12.3 nM	–	0.842
[11], 37 nM	–	1.09
[11], 111.1 nM	–	0.872
[11], 333.3 nM	–	0.827
[11], 1000 nM	–	0.618
[11], 3000 nM	–	0.26
[12], 4.1 nM	–	1.15
[12], 12.3 nM	–	0.888
[12], 37 nM	–	1.09
[12], 111.1 nM	–	0.916
[12], 333.3 nM	–	0.806
[12], 1000 nM	–	0.392
[12], 3000 nM	–	0.163
[13], 4.1 nM	–	0.974
[13], 12.3 nM	–	0.888
[13], 37 nM	–	0.906
[13], 111.1 nM	–	0.871
[13], 333.3 nM	–	0.651
[13], 1000 nM	–	0.325
[13], 3000 nM	–	0.0382
[14], 4.1 nM	–	0.936
[14], 12.3 nM	–	0.864
[14], 37 nM	–	0.9
[14], 111.1 nM	–	0.917
[14], 333.3 nM	–	0.6
[14], 1000 nM	–	0.387
[14], 3000 nM	–	0.0348

C[C@@H]1C[C@@H]([C@H](O)CC2CC(=O)NC(=O)C2)C(=O)[C@@H](C)C1 [Cycloheximide]
Settings	phenotypic distance	surviving fraction
[1], 4.1 nM	1.33	–
[1], 12.3 nM	5.02	–
[1], 37 nM	1.69	–
[1], 111.1 nM	1.77	–
[1], 333.3 nM	3.18	–
[1], 1000 nM	3.1	–
[1], 3000 nM	4.48	–
[2], 4.1 nM	0.852	–
[2], 12.3 nM	0.622	–
[2], 37 nM	1.06	–
[2], 111.1 nM	1.36	–
[2], 333.3 nM	5.19	–
[2], 1000 nM	1.49	–
[2], 3000 nM	1.95	–
[3], 4.1 nM	0.95	–
[3], 12.3 nM	0.932	–
[3], 37 nM	1.32	–
[3], 111.1 nM	1.7	–
[3], 333.3 nM	2.21	–
[3], 1000 nM	2.11	–
[3], 3000 nM	3	–
[4], 4.1 nM	1.3	–
[4], 12.3 nM	0.758	–
[4], 37 nM	0.919	–
[4], 111.1 nM	1.49	–
[4], 333.3 nM	1.35	–
[4], 1000 nM	2.05	–
[4], 3000 nM	3.12	–
[5], 4.1 nM	0.801	–
[5], 12.3 nM	0.904	–
[5], 37 nM	0.979	–
[5], 111.1 nM	1.14	–
[5], 333.3 nM	1.17	–
[5], 1000 nM	1.95	–
[5], 3000 nM	2.12	–
[6], 4.1 nM	1.49	–
[6], 12.3 nM	1.61	–
[6], 37 nM	2.55	–
[6], 111.1 nM	2.56	–
[6], 333.3 nM	4.4	–
[6], 1000 nM	4.89	–
[6], 3000 nM	4.79	–
[7], 4.1 nM	1.69	–
[7], 12.3 nM	1.77	–
[7], 37 nM	2.65	–
[7], 111.1 nM	3.3	–
[7], 333.3 nM	5.28	–
[7], 1000 nM	4.65	–
[7], 3000 nM	3.46	–
[8], 4.1 nM	–	0.769
[8], 12.3 nM	–	0.713
[8], 37 nM	–	0.644
[8], 111.1 nM	–	0.654
[8], 333.3 nM	–	0.436
[8], 1000 nM	–	0.408
[8], 3000 nM	–	0.306
[9], 4.1 nM	–	0.912
[9], 12.3 nM	–	0.753
[9], 37 nM	–	0.87
[9], 111.1 nM	–	0.918
[9], 333.3 nM	–	0.691
[9], 1000 nM	–	0.723
[9], 3000 nM	–	0.633
[10], 4.1 nM	–	0.854
[10], 12.3 nM	–	0.905
[10], 37 nM	–	0.703
[10], 111.1 nM	–	0.684
[10], 333.3 nM	–	0.477
[10], 1000 nM	–	0.297
[10], 3000 nM	–	0.261
[11], 4.1 nM	–	0.885
[11], 12.3 nM	–	0.873
[11], 37 nM	–	0.815
[11], 111.1 nM	–	0.616
[11], 333.3 nM	–	0.562
[11], 1000 nM	–	0.584
[11], 3000 nM	–	0.414
[12], 4.1 nM	–	0.899
[12], 12.3 nM	–	0.76
[12], 37 nM	–	0.771
[12], 111.1 nM	–	0.592
[12], 333.3 nM	–	0.542
[12], 1000 nM	–	0.346
[12], 3000 nM	–	0.451
[13], 4.1 nM	–	0.723
[13], 12.3 nM	–	0.694
[13], 37 nM	–	0.546
[13], 111.1 nM	–	0.511
[13], 333.3 nM	–	0.322
[13], 1000 nM	–	0.323
[13], 3000 nM	–	0.227
[14], 4.1 nM	–	0.753
[14], 12.3 nM	–	0.688
[14], 37 nM	–	0.532
[14], 111.1 nM	–	0.518
[14], 333.3 nM	–	0.443
[14], 1000 nM	–	0.356
[14], 3000 nM	–	0.305
